In US7629382B2, “Use of tellurium containing compounds as nerve protecting agents” (BioMAS Ltd., priority 2003, dated 2009):
Where “and” joins values, the source holds several entries; their conditions need not be identical. Identical values can stand only once.

Columns and labels:
p21waf = p21waf protein expression in PC12 cells (Western blotting); type: cell-based; settings: for effect of pretreatment on p21waf protein expression induced by AS101: PC12 cells pretreated before AS101
Procedure: PC12 cells were washed in serum-free medium, resuspended to 1-5×10^6cells/ml. After 24 hours of incubation at 37° C. in culture, the cells were supplemented with 3 ml of medium (RPMI 1640 containing 10% FCS, 2% glutamine and 1 mg/ml G418 (Life Technologies, Inc.). After another 24 hours, cells were resuspended and maintained in the selection medium. After 3-4 weeks in selective medium, transfected cells were analyzed for via Western blotting. Results are expressed as percent p21 as compared to the negative (no drug) control.
PC12 cell extracts (20 μg/lane of protein) boiled under reducing conditions, were subjected to electrophoresis on 7.5 and 12.5% polyacrylamide gels and electro-transferred to nitrocellulose membranes. The membrane was blocked for one hour with 10% powdered milk in 0.2% Tween 20, Tris-buffered saline, and then incubated with the appropriate specific detecting antibodies. Immunoreactive proteins were detected with horseradish peroxidase-conjugated secondary antibodies (Amersham, Arlington Heights, Ill.) and a chemiluminescence reagent. For immunoprecipitation studies, immune complexes were precipitated with Protein A-Sepharose (Pharmacia) and, following electrophoresis, were blotted with anti-phosphoserine or anti-phosphotyrosine antibodies.

spinal cord injury = assay: Rat spinal cord injury model (weight-drop contusion); type: in vivo
Procedure: Twenty rats were divided into 4 treatment groups (control, AS101 15; 20; 30 μg). Experimental spinal cord injury (SCI) was induced via weight-drop contusion models that result in significant locomotor deficits, including lack of coordination and trunk stability. AS101 was applied topically to the damaged area and rats were treated for 21 days with AS101 administrated i.v. At the end of the first week following SCI, and on days 14 and 21, recovery was determined using Basso, Beattie and Bresnahan (BBB) locomotor scale score.

[1] = tested on: PC12 cells expressing the dominant negative form (N17) of ras; assay: Neuronal differentiation of PC12 cells expressing dominant negative ras; type: cell-based
Procedure: (§1) To assess the neuroprotective effects of AS101, PC12 cells were maintained in Dulbecco's modified Eagle's medium supplemented with 8% heat inactivated horse serum, 8% heat inactivated fetal bovine serum, glutamine (5 mM) and 50 μg/ml gentamycin at 37° C.
The ras Asn-17 gene was then cloned into a mammalian expression vector. Transfection of PC12 cells with the plasmid DNA was performed with the calcium phosphate precipitation technique as described previously.

c-raf-1 = assay: Activation of p21ras downstream effector c-raf-1; type: cell-based; settings: cells incubated with AS101 for 15 minutes
Text: (§2) The effect of AS101 on signaling pathways that are controlled by Ras superfamily GTPases was screened by parallel analysis of the activation of the Ras family GTPases and their effectors (FIG. 1). The primary methods used for studying activation of different Ras superfamily GTPases were: (a) pull down of activated Ras superfamily GTPases from cell lysates, by binding of the specific recombinant purified effector GTPase binding domains to the activated GTP bound form. Subsequent to the pull down of the activated GTPases, the proteins were detected and quantified by western blotting; (b) activation of GTPases effectors such as Raf or RAC, by reporter gene assays; and (c) direct immunoprecipitation kinase assays (FIG. 2).

[2] = rats; intravenous and intramuscular administration; cited from earlier work
PC12 cells [3] = assay: Detection of apoptosis in PC12 cells (NGF withdrawal); type: cell-based
Procedure: as §1
The percentage of cells undergoing apoptosis was quantitatively determined using an Apoptosis Detection kit, on the basis of their ability to bind annexin V and exclude iodide, and also by an in situ cell detection kit incorporating HTC labeling and TUNEL.

recombinant p21 ras = recombinant p21 ras (Homo sapiens, UniProt P01112); assay: Activation of recombinant p21ras by GDP/GTP exchange; type: biochemical; settings: incubated 10 minutes
recombinant p21 ras, sequence (P01112 whole entry, species assumed): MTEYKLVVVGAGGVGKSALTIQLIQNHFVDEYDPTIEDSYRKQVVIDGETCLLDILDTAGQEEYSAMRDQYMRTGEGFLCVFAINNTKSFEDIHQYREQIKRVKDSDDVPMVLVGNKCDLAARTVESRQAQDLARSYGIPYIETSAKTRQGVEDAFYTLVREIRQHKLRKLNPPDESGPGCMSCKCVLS
Procedure: AS101 (ammonium trichloro(dioxoethylene-O,O′)tellurate) was incubated with recombinant p21^ras for 10 minutes;
as §2
P21ras was cleaved by cyanogen bromide. This process yielded three fragments, each containing one cysteine residue: fragment 1 containing Cys51 (Mr 7,203); fragment 2 containing Cys60 (Mr 4,540) and fragment 3 containing Cys118 (Mr 6223). To confirm that Cys118 is the molecular target of AS101, a form of p21ras was generated identical to the wild type enzyme except that Cys118 is changed by a Ser residue (referred to as p21rasC118S). […] The stimulation by AS101 of nucleotide exchange on GDP-preloaded p21rasC118S in vitro was determined.

PC12 cells [4] = assay: Cell cycle distribution of PC12 cells (propidium iodide flow cytometry); type: cell-based
Procedure: as §1
Cell cycle distribution studies were performed as previously described. Cells were trypsinyzed and suspended for 10 minutes at room temperature at 1.106/ml buffer containing lmg/ml RNAse, 1% NP-40, 10 μg/ml propidium iodide and 0.1% sodium citrate. Propidium iodide fluorescence was measured using a FACStar plus flow cytometer equipped with an air-cooled argon laser delivering 15 mW of light at […]. The red fluorescence from 1.104 cells from each sample was collected through a 610 nm bandpass filter.

Erk = assay: Kinase assay of immunoprecipitated Erk with myelin basic protein as substrate; type: cell-based; settings: Jurkat T cells or NIH3T3 cells
Procedure: NIH3T3 cells were incubated with AS101 for 10 minutes with or without famesyl transferase inhibitor.
Endogenous JNK and erk were immunoprecipitated from cell lysates with specific antibodies and their activities measured by using p^32 ATP and glutathione s-transferase (GST) e-jun or myelin basic protein (MPB) respectively, as the substrate. Samples were run on SDS-polyacrylamide gel electrophoresis gels and subjected to Phosphorlmager analysis.
as §2

PC12 cells [5] = assay: Neuronal differentiation of PC12 cells; type: cell-based
Procedure: as §1

[6] = tested on: PC12 cells expressing a point mutation of Cys118 of P21ras; assay: Neuronal differentiation of PC12 cells expressing Cys118 point mutation of p21ras; type: cell-based

Structure (SMILES): COc1cccc(-c2cc(=O)c3ccccc3o2)c1N [PD98059]
- effect of pretreatment on p21waf protein expression induced by AS101 (p21waf): abolished

Structure (SMILES): COC(=O)[C@H](CCSC)NC(=O)c1ccc(NC[C@@H](N)CS)cc1-c1ccccc1 [farnesyl transferase inhibitor]
- effect of pretreatment on p21waf protein expression induced by AS101 (p21waf): abolished

Structure (SMILES): Cl[TeH]1(Cl)(Cl)OCCO1 [AS101, ammonium trichloro(dioxyethylene-O,O′)tellurate]
- reduction in body weight following injury (spinal cord injury): attenuated
- mortality (spinal cord injury; 20 μg AS101 group, two deaths in control group): no mortality
- mortality (spinal cord injury; 30 μg AS101 group, two deaths in control group): no mortality
- tolerability / adverse side effects (spinal cord injury; administration after spinal cord injury): well tolerated
- BBB locomotor scale score (functional recovery) (spinal cord injury; high dose AS101, repeated administration, control 1±1.7): 3±2
- deaths (spinal cord injury; low dose group, two deaths in control group): one
- therapeutic effect during second and third weeks of treatment (spinal cord injury; second and third weeks): no beneficial effect
- differentiation [1]: did not result in their differentiation
- activation of c-raf-1 (c-raf-1): could activate
- LD50 relative to immunologically effective dose [2]: 500-1000 folds
- Apoptotic (PC12 cells [3]; AS101 0.1 μg/ml): 8.8%
- Apoptotic (PC12 cells [3]; AS101 0.5 μg/ml): 5.3%
- Apoptotic (PC12 cells [3]; AS101 1 μg/ml): 6.6%
- binding to and activation of p21 ras via GDP/GTP exchange (recombinant p21 ras): directly binds to recombinant p21 ras and activates it via GDP/GTP exchange
- G0/G1 (PC12 cells [4]; AS101 0.1 μg/ml): 39.7%
- G2/M (PC12 cells [4]; AS101 0.1 μg/ml): 16.4%
- S (PC12 cells [4]; AS101 0.1 μg/ml): 43.9%
- G2/M (PC12 cells [4]; AS101 0.5 μg/ml): 27.9%
- S (PC12 cells [4]; AS101 0.5 μg/ml): 4.0%
- G0/G1 (PC12 cells [4]; AS101 0.5 μg/ml, 24 hours): 68.1%
- G0/G1 (PC12 cells [4]; AS101 1 μg/ml): 67.5%
- G2/M (PC12 cells [4]; AS101 1 μg/ml): 29%
- S (PC12 cells [4]; AS101 1 μg/ml): 3.5%
- G0/G1 (PC12 cells [4]; NGF + anti NGF Ab + AS101): 68%
- G2/M (PC12 cells [4]; NGF + anti NGF Ab + AS101): 27.6%
- S (PC12 cells [4]; NGF + anti NGF Ab + AS101): 4.4%
- activation of ras and downstream effector Erk (Erk): activated ras and its downstream effector, Erk
- neuronal differentiation (PC12 cells [5]): induced neuronal differentiation in a dose-dependent manner
- optimal doses for inducing neuronal differentiation (PC12 cells [5]): 0.5 µg/mL and 1 µg/mL
- p21waf protein expression (p21waf; PC12 cells, 24 h, dose-dependent): pronounced increase
- cellular differentiation [6]: did not result in cellular differentiation
